Each block holds one compound with its values, some of them ahead of it.
What was measured:
[1] = target: Protein kinase C eta type (Homo sapiens) (UniProt P24723); test: Selectivity interaction (Millipore kinase profiler) EUB0000124b PRKCH; details: at 10 µM
[2] = target: T1, Aurora kinase A (Homo sapiens) (UniProt O14965); test: Selectivity interaction (ActivX KiNativ screen (kinase selectivity in THP-1 cell lysates)) EUB0000639a STK6; type: subcellular; details: lysate, at 1 µM
T1 sequence (whole entry): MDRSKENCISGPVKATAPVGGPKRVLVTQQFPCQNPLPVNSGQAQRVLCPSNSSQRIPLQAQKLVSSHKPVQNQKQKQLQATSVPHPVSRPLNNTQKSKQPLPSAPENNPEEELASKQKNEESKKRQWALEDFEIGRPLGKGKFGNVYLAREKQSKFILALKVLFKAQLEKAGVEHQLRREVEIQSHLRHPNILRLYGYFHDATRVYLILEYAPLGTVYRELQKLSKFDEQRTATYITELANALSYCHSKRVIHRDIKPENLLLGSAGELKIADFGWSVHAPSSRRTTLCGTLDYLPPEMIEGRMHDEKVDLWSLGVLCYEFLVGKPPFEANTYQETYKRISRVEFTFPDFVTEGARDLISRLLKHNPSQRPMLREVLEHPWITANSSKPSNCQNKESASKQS

[3] = target: Platelet-derived growth factor receptor beta (Homo sapiens, UniProt P09619); test: Selectivity interaction (Kinase panel (enzymatic assay)) EUB0000595a PDGFRB
[4] = target: T2, Mitogen-activated protein kinase kinase kinase 13 (Homo sapiens) (UniProt O43283); test: Selectivity interaction (KinomeScan (DiscoverX)) EUB0001079a MAP3K13; details: at 1 µM
T2 sequence (whole entry): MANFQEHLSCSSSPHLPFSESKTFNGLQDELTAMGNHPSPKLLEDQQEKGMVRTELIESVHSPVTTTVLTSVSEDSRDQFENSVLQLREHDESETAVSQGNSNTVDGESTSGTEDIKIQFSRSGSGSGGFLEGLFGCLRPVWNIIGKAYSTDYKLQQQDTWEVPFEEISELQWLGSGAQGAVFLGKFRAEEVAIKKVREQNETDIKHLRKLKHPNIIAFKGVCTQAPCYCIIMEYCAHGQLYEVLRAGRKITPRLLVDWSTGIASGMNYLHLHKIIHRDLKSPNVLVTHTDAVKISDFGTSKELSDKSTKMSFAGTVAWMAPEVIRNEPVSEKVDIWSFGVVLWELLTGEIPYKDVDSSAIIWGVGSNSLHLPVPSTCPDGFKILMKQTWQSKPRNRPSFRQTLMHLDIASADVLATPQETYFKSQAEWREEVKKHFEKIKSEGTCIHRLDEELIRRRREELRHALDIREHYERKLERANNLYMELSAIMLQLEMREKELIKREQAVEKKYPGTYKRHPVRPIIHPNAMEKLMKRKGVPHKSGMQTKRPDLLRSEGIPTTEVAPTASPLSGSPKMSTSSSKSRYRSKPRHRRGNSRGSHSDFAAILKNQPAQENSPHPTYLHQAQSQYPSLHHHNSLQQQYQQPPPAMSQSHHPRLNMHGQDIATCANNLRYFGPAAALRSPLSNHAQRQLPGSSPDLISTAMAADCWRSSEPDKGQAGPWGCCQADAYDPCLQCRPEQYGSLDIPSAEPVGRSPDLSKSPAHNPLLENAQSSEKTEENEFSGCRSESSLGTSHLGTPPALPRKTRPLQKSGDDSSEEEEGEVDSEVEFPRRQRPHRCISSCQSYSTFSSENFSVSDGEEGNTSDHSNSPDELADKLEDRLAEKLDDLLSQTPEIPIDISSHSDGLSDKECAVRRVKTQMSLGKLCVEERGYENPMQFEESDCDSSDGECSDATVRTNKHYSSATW

[5] = target: Muscarinic acetylcholine receptor M3 (Homo sapiens, UniProt P20309); test: Selectivity interaction (GPCR panel (PDSP screen)) EUB0001079a CHRM3; details: at 10 µM
[6] = target: T3, Myosin-IIIb (Homo sapiens) (UniProt Q8WXR4); test: Selectivity interaction (KinomeScan (DiscoverX)) EUB0000045b MYO3B
T3 sequence (whole entry): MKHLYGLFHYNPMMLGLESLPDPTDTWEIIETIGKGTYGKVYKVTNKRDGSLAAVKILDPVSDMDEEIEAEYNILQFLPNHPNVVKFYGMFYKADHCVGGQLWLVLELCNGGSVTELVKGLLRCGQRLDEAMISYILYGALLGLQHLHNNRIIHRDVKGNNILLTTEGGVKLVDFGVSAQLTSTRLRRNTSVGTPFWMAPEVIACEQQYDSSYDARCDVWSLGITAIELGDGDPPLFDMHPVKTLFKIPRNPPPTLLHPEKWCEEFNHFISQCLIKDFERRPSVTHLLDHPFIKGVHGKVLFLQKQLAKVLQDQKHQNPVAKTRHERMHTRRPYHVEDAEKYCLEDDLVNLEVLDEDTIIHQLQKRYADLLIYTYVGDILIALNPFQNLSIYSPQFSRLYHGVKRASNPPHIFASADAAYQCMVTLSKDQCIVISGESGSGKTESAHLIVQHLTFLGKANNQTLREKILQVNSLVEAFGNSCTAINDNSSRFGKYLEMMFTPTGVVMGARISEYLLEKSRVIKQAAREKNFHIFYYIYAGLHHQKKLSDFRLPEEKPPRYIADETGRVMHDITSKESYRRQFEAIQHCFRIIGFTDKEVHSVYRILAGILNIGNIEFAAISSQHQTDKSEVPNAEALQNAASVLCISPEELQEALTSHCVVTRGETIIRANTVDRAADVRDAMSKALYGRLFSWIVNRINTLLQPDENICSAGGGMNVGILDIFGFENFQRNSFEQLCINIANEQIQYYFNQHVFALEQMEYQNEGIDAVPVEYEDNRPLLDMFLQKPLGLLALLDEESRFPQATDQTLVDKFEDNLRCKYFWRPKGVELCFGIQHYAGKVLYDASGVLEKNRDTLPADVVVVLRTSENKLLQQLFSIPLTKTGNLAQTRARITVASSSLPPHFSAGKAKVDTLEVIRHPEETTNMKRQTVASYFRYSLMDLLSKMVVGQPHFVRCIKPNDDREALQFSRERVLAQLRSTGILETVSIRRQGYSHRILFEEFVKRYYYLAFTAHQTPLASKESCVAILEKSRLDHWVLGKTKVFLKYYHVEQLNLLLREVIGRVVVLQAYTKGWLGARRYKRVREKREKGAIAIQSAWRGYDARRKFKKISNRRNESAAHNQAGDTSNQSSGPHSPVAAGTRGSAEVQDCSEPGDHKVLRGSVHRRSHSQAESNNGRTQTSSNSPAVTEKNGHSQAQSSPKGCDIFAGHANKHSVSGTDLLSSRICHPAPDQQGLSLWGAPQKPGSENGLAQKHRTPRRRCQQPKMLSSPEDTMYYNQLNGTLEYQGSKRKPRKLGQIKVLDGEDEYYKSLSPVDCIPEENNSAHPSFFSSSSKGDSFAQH

[7] = target: Serine/threonine-protein kinase MARK2 (Homo sapiens) (UniProt Q7KZI7); test: Selectivity interaction (KinomeScan (DiscoverX)) EUB0000666a MARK2; details: at 10 µM
Chain of Serine/threonine-protein kinase MARK2 (Homo sapiens) (Q7KZI7 whole entry): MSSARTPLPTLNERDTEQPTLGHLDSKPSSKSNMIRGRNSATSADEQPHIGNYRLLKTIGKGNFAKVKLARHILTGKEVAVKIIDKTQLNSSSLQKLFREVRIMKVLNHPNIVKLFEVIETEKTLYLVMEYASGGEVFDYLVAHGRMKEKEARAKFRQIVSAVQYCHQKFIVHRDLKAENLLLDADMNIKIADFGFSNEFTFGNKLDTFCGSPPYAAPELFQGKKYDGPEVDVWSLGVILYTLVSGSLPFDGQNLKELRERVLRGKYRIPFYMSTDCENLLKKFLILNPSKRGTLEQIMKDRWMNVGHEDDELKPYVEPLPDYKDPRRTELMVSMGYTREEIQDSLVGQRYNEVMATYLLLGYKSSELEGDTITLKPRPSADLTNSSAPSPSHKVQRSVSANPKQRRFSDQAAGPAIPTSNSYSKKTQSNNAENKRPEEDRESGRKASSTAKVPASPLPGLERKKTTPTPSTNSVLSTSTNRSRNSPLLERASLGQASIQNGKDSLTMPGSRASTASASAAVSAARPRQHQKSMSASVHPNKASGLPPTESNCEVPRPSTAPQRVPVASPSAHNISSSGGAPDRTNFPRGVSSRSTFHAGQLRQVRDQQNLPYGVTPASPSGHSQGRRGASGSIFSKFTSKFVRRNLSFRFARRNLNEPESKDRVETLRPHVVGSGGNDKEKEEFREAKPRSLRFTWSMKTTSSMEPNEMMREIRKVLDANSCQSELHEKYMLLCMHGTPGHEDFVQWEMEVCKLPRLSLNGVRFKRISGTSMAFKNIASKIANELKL

Chain of Protein kinase C eta type (Homo sapiens) (P24723 whole entry): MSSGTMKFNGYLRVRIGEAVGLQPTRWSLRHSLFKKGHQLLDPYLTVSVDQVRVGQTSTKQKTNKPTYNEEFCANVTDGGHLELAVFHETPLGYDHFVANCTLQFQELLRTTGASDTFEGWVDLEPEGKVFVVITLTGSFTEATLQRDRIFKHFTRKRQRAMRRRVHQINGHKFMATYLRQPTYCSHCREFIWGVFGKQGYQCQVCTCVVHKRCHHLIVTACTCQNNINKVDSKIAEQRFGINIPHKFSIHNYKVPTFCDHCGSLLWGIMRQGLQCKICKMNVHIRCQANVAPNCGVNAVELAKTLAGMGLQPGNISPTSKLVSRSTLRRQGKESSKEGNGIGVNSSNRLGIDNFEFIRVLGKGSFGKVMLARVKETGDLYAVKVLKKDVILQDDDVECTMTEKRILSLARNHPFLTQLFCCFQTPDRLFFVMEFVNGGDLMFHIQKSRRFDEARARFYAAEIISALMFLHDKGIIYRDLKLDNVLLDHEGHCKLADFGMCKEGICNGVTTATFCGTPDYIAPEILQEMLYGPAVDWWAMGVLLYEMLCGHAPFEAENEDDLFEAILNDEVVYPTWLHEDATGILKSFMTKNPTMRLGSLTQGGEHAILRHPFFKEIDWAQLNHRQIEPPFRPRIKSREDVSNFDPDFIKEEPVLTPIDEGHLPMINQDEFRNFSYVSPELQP
Chain of Muscarinic acetylcholine receptor M3 (P20309 whole entry, looked up): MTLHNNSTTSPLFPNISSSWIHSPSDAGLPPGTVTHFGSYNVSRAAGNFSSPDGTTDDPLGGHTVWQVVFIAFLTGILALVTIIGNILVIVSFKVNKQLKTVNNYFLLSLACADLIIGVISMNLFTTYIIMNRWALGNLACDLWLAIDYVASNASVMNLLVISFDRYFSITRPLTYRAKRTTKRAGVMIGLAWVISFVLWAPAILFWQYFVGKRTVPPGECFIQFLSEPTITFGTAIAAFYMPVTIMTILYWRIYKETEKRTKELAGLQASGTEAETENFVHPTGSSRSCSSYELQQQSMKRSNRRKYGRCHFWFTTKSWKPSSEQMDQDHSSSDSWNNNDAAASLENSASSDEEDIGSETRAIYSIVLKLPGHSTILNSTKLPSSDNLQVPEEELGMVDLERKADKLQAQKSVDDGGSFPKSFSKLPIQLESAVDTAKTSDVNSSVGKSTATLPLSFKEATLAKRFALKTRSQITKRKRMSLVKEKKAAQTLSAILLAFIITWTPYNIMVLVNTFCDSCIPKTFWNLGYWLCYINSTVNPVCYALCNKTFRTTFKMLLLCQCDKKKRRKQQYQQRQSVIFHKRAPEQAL
Chain of Platelet-derived growth factor receptor beta (P09619 whole entry): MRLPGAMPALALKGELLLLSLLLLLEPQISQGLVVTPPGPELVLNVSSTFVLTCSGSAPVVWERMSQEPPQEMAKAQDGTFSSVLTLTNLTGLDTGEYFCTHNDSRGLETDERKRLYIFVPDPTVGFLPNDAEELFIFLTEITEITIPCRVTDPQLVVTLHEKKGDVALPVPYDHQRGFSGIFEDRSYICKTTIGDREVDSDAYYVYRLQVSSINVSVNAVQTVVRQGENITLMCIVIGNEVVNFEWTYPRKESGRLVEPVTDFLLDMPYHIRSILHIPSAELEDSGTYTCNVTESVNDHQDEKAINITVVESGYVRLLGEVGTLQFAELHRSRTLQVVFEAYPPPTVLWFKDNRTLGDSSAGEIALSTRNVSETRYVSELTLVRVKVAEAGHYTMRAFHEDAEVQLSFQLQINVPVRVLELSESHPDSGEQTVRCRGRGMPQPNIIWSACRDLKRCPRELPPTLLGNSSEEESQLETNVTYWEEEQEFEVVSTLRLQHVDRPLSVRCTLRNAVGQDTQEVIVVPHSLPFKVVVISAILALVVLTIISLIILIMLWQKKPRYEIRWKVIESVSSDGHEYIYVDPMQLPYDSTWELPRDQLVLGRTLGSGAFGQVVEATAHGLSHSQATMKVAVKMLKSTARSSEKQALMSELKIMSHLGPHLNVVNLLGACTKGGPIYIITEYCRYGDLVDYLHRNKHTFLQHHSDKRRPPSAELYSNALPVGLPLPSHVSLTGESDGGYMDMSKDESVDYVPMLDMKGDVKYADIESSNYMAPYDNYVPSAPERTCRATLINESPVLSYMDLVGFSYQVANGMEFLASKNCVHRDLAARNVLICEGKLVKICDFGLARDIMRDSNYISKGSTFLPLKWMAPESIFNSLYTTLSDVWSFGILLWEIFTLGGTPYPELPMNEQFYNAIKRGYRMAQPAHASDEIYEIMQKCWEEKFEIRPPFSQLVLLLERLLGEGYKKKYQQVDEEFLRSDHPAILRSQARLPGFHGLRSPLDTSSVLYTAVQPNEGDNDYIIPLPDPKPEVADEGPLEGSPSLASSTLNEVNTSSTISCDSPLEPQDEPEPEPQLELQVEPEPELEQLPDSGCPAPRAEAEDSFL

% of control [1]: 107%
SMILES: CC(=O)Nc1cccc(-n2c(=O)n(C3CC3)c(=O)c3c(Nc4ccc(I)cc4F)n(C)c(=O)c(C)c32)c1

% of inhibition [2]: 20%
SMILES: CC[C@@H]1[C@H](F)C(=O)N[C@@H]1COc1nccc2cc(C(N)=O)c(OC)cc12 [ZIMLOVISERTIB]

SMILES: COCC(=O)NC/C=C/c1ccc2ncnc(Nc3ccc(Oc4ccc(C)nc4)c(C)c3)c2c1 [CP-724714]
IC50 [3]: > 10 µM

SMILES: Nc1cnc(N2CCc3cc(S(=O)(=O)Nc4c(F)cc(Cl)cc4F)cc(N4CCCC4=O)c32)nc1 [TP-020n]
% of control [4]: 100% | % of inhibition [5]: -18%

SMILES: C=CC(=O)Nc1cc(-n2c(=O)ccc3cnc4ccc(-c5ccc(NS(C)(=O)=O)cc5)cc4c32)ccc1C
% of control ([6]; at 1 µM): 92% | % of control ([6]; at 10 µM): 100%

SMILES: O=C(NOC[C@H](O)CO)c1ccc(F)c(F)c1Nc1ccc(I)cc1F
% of control [7]: 100%
